Test results from ChEMBL document CHEMBL3352218, “Structural basis for inhibition of mycobacterial and human adenosine kinase by 7-substituted 7-(Het)aryl-7-deazaadenine ribonucleosides” (J Med Chem, 2014).
≈ marks a conversion by molar mass, not a printed value. Calls of active or inactive are those of the source. The rule behind the calls is not given here.

How the values were obtained:
[1] = tested on: Mycobacterium tuberculosis; assay: Activity of Mycobacterium tuberculosis ADK expressed in Escherichia coli BL21(DE3) cells assessed as compound phosphorylation by measuring conversion of compound to 5'-phosphate
BJ = assay: Cytotoxicity against human BJ cells by MTT assay; assay type: functional
[2] = tested on: Mycobacterium tuberculosis; assay: Antimycobacterial activity against Mycobacterium tuberculosis H37Rv My 331/88 assessed as microbial growth inhibition incubated for 14 days; assay type: functional; conditions: H37Rv My 331/88, 336 h
Adenosine kinase [3] = target: T1, Adenosine kinase (Homo sapiens, UniProt P55263); assay: Inhibition of human ADK expressed in Escherichia coli BL21(DE3) cells using [3H]adenosine by liquid scintillation counting method
Target sequence in this assay (P55263 whole entry): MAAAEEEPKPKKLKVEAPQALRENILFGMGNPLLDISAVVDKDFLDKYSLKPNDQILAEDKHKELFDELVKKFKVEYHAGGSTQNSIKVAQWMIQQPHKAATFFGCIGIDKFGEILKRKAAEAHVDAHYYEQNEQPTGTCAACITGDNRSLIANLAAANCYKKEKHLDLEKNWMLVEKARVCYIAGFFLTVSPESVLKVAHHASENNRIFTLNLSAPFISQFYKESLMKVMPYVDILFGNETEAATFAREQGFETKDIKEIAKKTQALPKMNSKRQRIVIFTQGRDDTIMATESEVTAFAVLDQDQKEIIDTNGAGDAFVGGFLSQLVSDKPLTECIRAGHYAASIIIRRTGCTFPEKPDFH

[4] = Inhibition of Mycobacterium tuberculosis ADK expressed in Escherichia coli BL21(DE3) cells using [3H]adenosine by liquid scintillation counting method
MRC5 = assay: Cytotoxicity against human MRC5 cells by MTT assay; assay type: functional
Adenosine kinase [5] = target: T1, Adenosine kinase; assay: Binding affinity to human ADK expressed in Escherichia coli BL21(DE3) cells assessed as relative STD enhancements of signal from H-1' at 500 uM by 1H STD NMR spectroscopy
Target sequence in this assay (P55263 2-362 limits assumed): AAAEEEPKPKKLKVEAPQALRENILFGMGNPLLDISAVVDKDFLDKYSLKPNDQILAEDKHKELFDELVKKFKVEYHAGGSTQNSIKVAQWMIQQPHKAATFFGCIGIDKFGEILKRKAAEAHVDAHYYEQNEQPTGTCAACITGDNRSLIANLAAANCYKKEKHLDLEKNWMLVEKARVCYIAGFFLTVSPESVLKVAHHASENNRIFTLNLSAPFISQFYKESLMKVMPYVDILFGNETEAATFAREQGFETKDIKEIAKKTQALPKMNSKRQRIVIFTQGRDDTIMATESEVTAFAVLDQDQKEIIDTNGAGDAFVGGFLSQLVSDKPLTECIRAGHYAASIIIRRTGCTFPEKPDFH

Adenosine kinase [6] = target: T1, Adenosine kinase; assay: Binding affinity to human ADK expressed in Escherichia coli BL21(DE3) cells assessed as relative STD enhancements of signal from H-2 at 500 uM by 1H STD NMR spectroscopy
Target sequence in this assay (P55263 2-362 limits assumed): as above

[7] = tested on: Mycobacterium tuberculosis; assay: Binding affinity to Mycobacterium tuberculosis ADK expressed in Escherichia coli BL21(DE3) cells assessed as relative STD enhancements of signal from H-1' at 500 uM by 1H STD NMR spectroscopy
[8] = tested on: Mycobacterium tuberculosis; assay: Binding affinity to Mycobacterium tuberculosis ADK expressed in Escherichia coli BL21(DE3) cells assessed as relative STD enhancements of signal from H-8 at 500 uM by 1H STD NMR spectroscopy
Adenosine kinase [9] = target: T1, Adenosine kinase; assay: Binding affinity to human ADK expressed in Escherichia coli BL21(DE3) cells assessed as relative STD enhancements of signal from H-8 at 500 uM by 1H STD NMR spectroscopy
Target sequence in this assay (P55263 2-362 limits assumed): as above

[10] = tested on: Mycobacterium tuberculosis; assay: Binding affinity to Mycobacterium tuberculosis ADK expressed in Escherichia coli BL21(DE3) cells assessed as relative STD enhancements of signal from H-2 at 500 uM by 1H STD NMR spectroscopy
Adenosine kinase [11] = target: T1, Adenosine kinase; assay: Activity of human ADK expressed in Escherichia coli BL21(DE3) cells assessed as compound phosphorylation by measuring conversion of compound to 5'-phosphate; set-up: concentration or dose not given beside the values
Target sequence in this assay (P55263 2-362 limits assumed): as above

Row | SMILES | Activity [1] | CC50 (BJ) | MIC [2] | IC50 (Adenosine kinase [3]) | IC50 [4] | CC50 (MRC5) | Activity (Adenosine kinase [5]) | Activity (Adenosine kinase [6]) | Activity [7] | Activity [8] | Activity (Adenosine kinase [9]) | Activity [10] | Activity (Adenosine kinase [11])
1 | Nc1ncnc2c1c(/C=C/c1ccccc1)cn2[C@@H]1O[C@H](CO)[C@@H](O)[C@H]1O | inactive | 19.6 µM | 8 µM (≈ 2.95 µg/mL) | > 10 µM | 0.9 µM | 48.2 µM |  |  |  |  |  |  | 
2 | CC(C)c1ccc(-c2cn([C@@H]3O[C@H](CO)[C@@H](O)[C@H]3O)c3ncnc(N)c23)cc1 | inactive | 63.9 µM | 16 µM (≈ 6.15 µg/mL) | > 20 µM | > 10 µM | 52.9 µM |  |  |  |  |  |  | 
3 | Nc1ncnc2c1ncn2[C@@H]1O[C@H](COP(=O)(O)OP(=O)(O)OP(=O)(O)O)[C@@H](O)[C@H]1O |  |  |  |  |  |  | 100% | < 1% | 100% | 24% | < 1% | 57% | 
4 | Nc1ncnc2c1c(-c1cccc3c1Sc1ccccc1S3)cn2[C@@H]1O[C@H](CO)[C@@H](O)[C@H]1O | inactive | > 100 µM | 62.5 µM (≈ 30 µg/mL) | > 10 µM | 2.06 µM | 68.5 µM |  |  |  |  |  |  | 
5 | Nc1ncnc2c1c(-c1ncc[nH]1)cn2[C@@H]1O[C@H](CO)[C@@H](O)[C@H]1O | inactive | 1.48 µM | > 250 µM | > 20 µM | > 3 µM | 0.15 µM |  |  |  |  |  |  | 19%
6 | CC(C)Oc1ccc(-c2cn([C@@H]3O[C@H](CO)[C@@H](O)[C@H]3O)c3ncnc(N)c23)cc1 | inactive | 59.9 µM | 32 µM (≈ 12.8 µg/mL) | > 10 µM | 13.1 µM | 50.2 µM |  |  |  |  |  |  | 
7 | Nc1ncnc2c1c(-c1ccc(COc3cccc4ccccc34)cc1)cn2[C@@H]1O[C@H](CO)[C@@H](O)[C@H]1O | inactive | > 100 µM | 16 µM (≈ 7.98 µg/mL) | > 20 µM | > 10 µM | 92.1 µM |  |  |  |  |  |  | 
8 | COc1ccc(-c2cn([C@@H]3O[C@H](CO)[C@@H](O)[C@H]3O)c3ncnc(N)c23)cc1 | inactive | 21.9 µM | 16 µM (≈ 5.96 µg/mL) | > 5 µM | > 10 µM | 61.4 µM |  |  |  |  |  |  | 
9 | Nc1ncnc2c1c(-c1cccc3ccccc13)cn2[C@@H]1O[C@H](CO)[C@@H](O)[C@H]1O | inactive | 90.6 µM | 32 µM (≈ 12.6 µg/mL) |  | > 10 µM | 94.4 µM |  |  |  |  |  |  | 
10 | Nc1ncnc2c1c(-c1c[nH]cn1)cn2[C@@H]1O[C@H](CO)[C@@H](O)[C@H]1O | inactive | 0.12 µM | > 250 µM | 13 µM | > 10 µM | 0.33 µM |  |  |  |  |  |  | 47%
11 | Nc1ncnc2c1c(-c1ccc(C(F)(F)F)cc1)cn2[C@@H]1O[C@H](CO)[C@@H](O)[C@H]1O | inactive | 62 µM | 4 µM (≈ 1.64 µg/mL) | > 10 µM | > 10 µM | 78.8 µM |  |  |  |  |  |  | 
12 | Nc1ncnc2c1c(-c1cccs1)cn2[C@@H]1O[C@H](CO)[C@@H](O)[C@H]1O | inactive | 65.4 µM | 8 µM (≈ 2.79 µg/mL) |  | > 10 µM | 39.4 µM |  |  |  |  |  |  | 2%
13 | Cc1ccc(-c2cn([C@@H]3O[C@H](CO)[C@@H](O)[C@H]3O)c3ncnc(N)c23)cc1C | inactive | 57.3 µM | 8 µM (≈ 2.96 µg/mL) | > 20 µM | 4.9 µM | 37.9 µM |  |  |  |  |  |  | 
14 | Nc1ncnc2c1c(-c1cccc3c1oc1ccccc13)cn2[C@@H]1O[C@H](CO)[C@@H](O)[C@H]1O | inactive | > 100 µM | 4 µM (≈ 1.73 µg/mL) | > 10 µM | 0.6 µM | 100 µM |  |  |  |  |  |  | 
15 | Nc1ncnc2c1c(-c1ccc3c4c(cccc14)CC3)cn2[C@@H]1O[C@H](CO)[C@@H](O)[C@H]1O | inactive | 23.1 µM | 16 µM (≈ 6.7 µg/mL) | > 10 µM | > 10 µM | > 100 µM |  |  |  |  |  |  | 
16 | Nc1ncnc2c1c(-c1cc[nH]c1)cn2[C@@H]1O[C@H](CO)[C@@H](O)[C@H]1O | inactive | 10.1 µM | 62.5 µM (≈ 20.7 µg/mL) | 4.5 µM | > 10 µM | 5.05 µM |  |  |  |  |  |  | 20%
17 | Nc1ncnc2c1c(-c1cc3ccccc3c3ccccc13)cn2[C@@H]1O[C@H](CO)[C@@H](O)[C@H]1O | inactive | > 100 µM | 32 µM (≈ 14.2 µg/mL) | > 10 µM | > 10 µM | 66 µM |  |  |  |  |  |  | 

Row | SMILES | Activity [1] | CC50 (BJ) | MIC [2] | IC50 (Adenosine kinase [3]) | IC50 [4] | CC50 (MRC5) | Activity (Adenosine kinase [5]) | Activity (Adenosine kinase [6]) | Activity [7] | Activity [8] | Activity (Adenosine kinase [9]) | Activity [10] | Activity (Adenosine kinase [11])
18 | Nc1ncnc2c1c(-c1ccccc1)cn2[C@@H]1O[C@H](CO)[C@@H](O)[C@H]1O | inactive | 50.9 µM | 8 µM (≈ 2.74 µg/mL) |  | > 10 µM | 21 µM |  |  |  |  |  |  | 
19 | Nc1ncnc2c1c(-c1cc3ccccc3o1)cn2[C@@H]1O[C@H](CO)[C@@H](O)[C@H]1O | inactive | 21.2 µM | 16 µM (≈ 6.12 µg/mL) |  | 1.8 µM | 35.1 µM |  |  |  |  |  |  | 
20 | Nc1ncnc2c1c(-c1c[nH]nn1)cn2[C@@H]1O[C@H](CO)[C@@H](O)[C@H]1O | inactive | 0.08 µM | > 250 µM | > 20 µM | > 10 µM | 0.1 µM |  |  |  |  |  |  | 37%
21 | Nc1ncnc2c1c(-c1ccoc1)cn2[C@@H]1O[C@H](CO)[C@@H](O)[C@H]1O | inactive | 91.5 µM | 16 µM (≈ 5.32 µg/mL) |  | > 10 µM | 67.9 µM |  |  |  |  |  |  | 9%
22 | Nc1ncnc2c1c(-c1ccc(-c3ccccc3)cc1)cn2[C@@H]1O[C@H](CO)[C@@H](O)[C@H]1O | inactive | 40.6 µM | 4 µM (≈ 1.67 µg/mL) | > 20 µM | 7.67 µM | 93.7 µM |  |  |  |  |  |  | 
23 | Nc1ncnc2c1ncn2[C@@H]1O[C@H](CO)[C@@H](O)[C@H]1O |  |  |  |  |  |  | 100% | 8% | 100% | 58% | 20% | 44% | 
24 | CC(C)(C)c1ccc(-c2cn([C@@H]3O[C@H](CO)[C@@H](O)[C@H]3O)c3ncnc(N)c23)cc1 | inactive | > 100 µM | 62.5 µM (≈ 24.9 µg/mL) | > 20 µM | > 10 µM | 96.3 µM |  |  |  |  |  |  | 
25 | Nc1ncnc2c1c(-c1cn[nH]c1)cn2[C@@H]1O[C@H](CO)[C@@H](O)[C@H]1O | inactive | 48.9 µM | 125 µM (≈ 41.5 µg/mL) | > 10 µM | > 5 µM | 71.2 µM |  |  |  |  |  |  | 9%
26 | Nc1ncnc2c1c(-c1ccc[nH]1)cn2[C@@H]1O[C@H](CO)[C@@H](O)[C@H]1O | inactive | > 100 µM | 62.5 µM (≈ 20.7 µg/mL) | > 20 µM | 4.4 µM | 99.6 µM |  |  |  |  |  |  | 6%
27 | Nc1ncnc2c1c(-c1ccc3c(c1)OCO3)cn2[C@@H]1O[C@H](CO)[C@@H](O)[C@H]1O | inactive | 15.5 µM | 8 µM (≈ 3.09 µg/mL) | > 10 µM | > 10 µM | 46 µM |  |  |  |  |  |  | 
28 | NNC(=O)c1ccncc1 [ISONIAZID] |  |  | 0.5 µM (≈ 0.0686 µg/mL) |  |  |  |  |  |  |  |  |  | 
29 | Nc1ncnc2c1c(-c1ccc3ccccc3c1)cn2[C@@H]1O[C@H](CO)[C@@H](O)[C@H]1O | inactive | 13.9 µM | 2 µM (≈ 0.785 µg/mL) |  | 5.33 µM | 13.6 µM |  |  |  |  |  |  | 
30 | Nc1ncnc2c1c(-c1ccc(-c3ccc4ccccc4c3)cc1)cn2[C@@H]1O[C@H](CO)[C@@H](O)[C@H]1O | inactive | 0.12 µM | 62.5 µM (≈ 29.3 µg/mL) | > 20 µM | > 10 µM | 64.2 µM |  |  |  |  |  |  | 
31 | Nc1ncnc2c1c(-c1cc[nH]n1)cn2[C@@H]1O[C@H](CO)[C@@H](O)[C@H]1O | inactive | 9.51 µM | > 250 µM |  | > 10 µM | 0.18 µM |  |  |  |  |  |  | 7%
32 | CSc1ccc(-c2cn([C@@H]3O[C@H](CO)[C@@H](O)[C@H]3O)c3ncnc(N)c23)cc1 | inactive | 18 µM | 4 µM (≈ 1.55 µg/mL) |  | > 10 µM | 45.6 µM |  |  |  |  |  |  | 
33 | Nc1ncnc2c1c(-c1ccsc1)cn2[C@@H]1O[C@H](CO)[C@@H](O)[C@H]1O | inactive | 12.9 µM | 8 µM (≈ 2.79 µg/mL) |  | 6.6 µM | 42.5 µM |  |  |  |  |  |  | 2%
34 | COc1cc(-c2cn([C@@H]3O[C@H](CO)[C@@H](O)[C@H]3O)c3ncnc(N)c23)cc(OC)c1OC | inactive | > 100 µM | 8 µM (≈ 3.46 µg/mL) | > 10 µM | > 10 µM | > 100 µM |  |  |  |  |  |  | 
